Laboratory results reported in ChEMBL document CHEMBL4699582, “Discovery of OATD-01, a First-in-Class Chitinase Inhibitor as Potential New Therapeutics for Idiopathic Pulmonary Fibrosis” (J Med Chem, 2020).
pIC50, pKi: −log10 of the molar value. Active and inactive are the calls of the source. No cut-off for these calls is given here.

What was measured:
[1] = Clearance (0 to 24 hrs) in Sprague-Dawley rat at 2 mg/kg, iv administered as single bolus dose by LC-MS/MS analysis; format: ADME, organism-based; details: in vivo
[2] = biological target: Voltage-gated inwardly rectifying potassium channel KCNH2 (Homo sapiens, UniProt Q12809); test: Inhibition of tracer red binding to human ERG expressed in HEK293 cell membranes measured after 2 to 6 hrs by fluorescence polarization assay
Cytochrome P450 1A2 = Cytochrome P450 1A2 (Homo sapiens, UniProt P05177); test: Inhibition of CYP1A2 (unknown origin); format: ADME
Cytochrome P450 2C19 = Cytochrome P450 2C19 (Homo sapiens, UniProt P33261); test: Inhibition of CYP2C19 (unknown origin); format: ADME
Cytochrome P450 2C8 = Cytochrome P450 2C8 (Homo sapiens, UniProt P10632); test: Inhibition of CYP2C8 (unknown origin); format: ADME
[3] = biological target: Solute carrier family 22 member 2 (Homo sapiens, UniProt O15244); test: Inhibition of OCT2 (unknown origin) at 1 to 10 uM
[4] = biological target: Multidrug resistance-associated protein 1 (Homo sapiens, UniProt P33527); test: Inhibition of MRP1 (unknown origin) at 1 to 10 uM; details: dose 1-10 µM
[5] = biological target: Hepatic sodium/bile acid cotransporter (Homo sapiens, UniProt Q14973); test: Inhibition of NTCP (unknown origin) at 1 to 10 uM; details: dose 1-10 µM
[6] = biological target: Organic anion transporter 3 (Homo sapiens, UniProt Q8TCC7); test: Inhibition of OAT3 (unknown origin) at 1 to 10 uM; details: dose 1-10 µM
[7] = AUC (0 to 24 hrs) in Sprague-Dawley rat at 6 mg/kg, po administered as single dose by LC-MS/MS analysis; format: ADME, organism-based; set-up: time < 24 hr, route oral, dose 6 mg/kg; details: in vivo
[8] = AUC (0 to 24 hrs) in Balb/c mouse at 10 mg/kg, po administered as single dose by LC-MS/MS analysis; format: ADME, organism-based; set-up: time < 24 hr, route oral, dose 10 mg/kg; details: in vivo
[9] = AUC (0 to 24 hrs) in Beagle dog at 10 mg/kg, po administered as single dose by LC-MS/MS analysis; format: ADME, organism-based, Canis lupus familiaris; set-up: time < 24 hr, route oral, dose 10 mg/kg; details: in vivo
[10] = Dose normalized AUC (0 to 24 hrs) in Sprague-Dawley rat at 6 mg/kg, po administered as single dose by LC-MS/MS analysis; format: ADME, organism-based; details: in vivo
[11] = Dose normalized AUC (0 to 24 hrs) in Beagle dog at 10 mg/kg, po administered as single dose by LC-MS/MS analysis; format: ADME, organism-based, Canis lupus familiaris; details: in vivo
[12] = Initial plasma concentration in Balb/c mouse at 3 mg/kg, iv administered as single bolus dose by LC-MS/MS analysis; format: ADME, organism-based
[13] = Cmax in Beagle dog at 3 mg/kg, iv administered as single bolus dose by LC-MS/MS analysis; format: ADME, organism-based, Canis lupus familiaris; set-up: route intravenous, dose 3 mg/kg; details: in vivo
[14] = Cmax in Balb/c mouse at 10 mg/kg, po administered as single dose by LC-MS/MS analysis; format: ADME, organism-based; set-up: route oral, dose 10 mg/kg; details: in vivo
[15] = Cmax in Beagle dog at 10 mg/kg, po administered as single dose by LC-MS/MS analysis; format: ADME, organism-based, Canis lupus familiaris; set-up: route oral, dose 10 mg/kg; details: in vivo
[16] = Dose normalized Cmax in Balb/c mouse at 10 mg/kg, po administered as single dose by LC-MS/MS analysis; format: ADME, organism-based; details: in vivo
[17] = Tmax in Sprague-Dawley rat at 6 mg/kg, po administered as single dose by LC-MS/MS analysis; format: ADME, organism-based; details: in vivo
[18] = Elimination half-life in Sprague-Dawley rat at 2 mg/kg, iv administered as single bolus dose by LC-MS/MS analysis; format: ADME, organism-based; details: in vivo, read-out: beta t1/2 (converted)
[19] = Elimination half-life in Beagle dog at 3 mg/kg, iv administered as single bolus dose by LC-MS/MS analysis; format: ADME, organism-based, Canis lupus familiaris; details: in vivo, read-out: beta t1/2 (converted)
[20] = Clearance (0 to infinity) in Sprague-Dawley rat at 2 mg/kg, iv administered as single bolus dose by LC-MS/MS analysis; format: ADME, organism-based; details: in vivo
[21] = Clearance (0 to 24 hrs) in Beagle dog at 3 mg/kg, iv administered as single bolus dose by LC-MS/MS analysis; format: ADME, organism-based, Canis lupus familiaris; details: in vivo
[22] = Volume of distribution at steady state in Sprague-Dawley rat at 2 mg/kg, iv administered as single bolus dose measured upto 24 hrs by LC-MS/MS analysis; format: ADME, organism-based; details: in vivo, read-out: Vdss
[23] = Volume of distribution at steady state in Beagle dog at 3 mg/kg, iv administered as single bolus dose measured upto 24 hrs by LC-MS/MS analysis; format: ADME, organism-based, Canis lupus familiaris; details: in vivo, read-out: Vdss
[24] = Drug uptake in C57BL/6N mouse lung at 30 mg/kg, po bid administered via gavage measured 24 hrs post dose; format: ADME, organism-based; details: in vivo
Mus musculus [25] = species: Mus musculus; details: C57BL/6N, dose 30.0 mg/kg
Mus musculus [26] = species: Mus musculus; details: C57BL/6N, dose 30.0 mg/kg; remark: listed apart in the source
Chitotriosidase-1 = Chitotriosidase-1 (Mus musculus, UniProt Q9D7Q1); test: biochemical
Sequence of Chitotriosidase-1 (Q9D7Q1 whole entry): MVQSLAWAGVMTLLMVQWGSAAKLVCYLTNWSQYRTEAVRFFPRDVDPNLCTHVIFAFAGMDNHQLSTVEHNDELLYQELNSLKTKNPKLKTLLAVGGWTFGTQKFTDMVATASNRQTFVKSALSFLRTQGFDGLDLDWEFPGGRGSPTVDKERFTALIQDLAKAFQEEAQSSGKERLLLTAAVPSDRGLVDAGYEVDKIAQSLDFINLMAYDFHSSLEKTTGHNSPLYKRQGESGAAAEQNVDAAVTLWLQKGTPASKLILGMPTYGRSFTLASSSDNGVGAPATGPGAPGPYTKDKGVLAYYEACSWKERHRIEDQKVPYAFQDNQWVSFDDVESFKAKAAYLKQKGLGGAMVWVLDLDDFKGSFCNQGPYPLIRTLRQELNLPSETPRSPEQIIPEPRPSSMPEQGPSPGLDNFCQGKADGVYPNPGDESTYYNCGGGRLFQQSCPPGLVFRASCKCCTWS
Description: Inhibition of recombinant full-length C-terminal his-tagged mouse CHIT1 expressed in CHO-K1 cells assessed as reduction in chitinolytic activity using 4-methylumbelliferyl-beta-D-N,N',N"-triacetylchitotrioside as substrate after 60 mins by fluorometric assay

Sequence of Organic anion transporter 3 (Q8TCC7 whole entry): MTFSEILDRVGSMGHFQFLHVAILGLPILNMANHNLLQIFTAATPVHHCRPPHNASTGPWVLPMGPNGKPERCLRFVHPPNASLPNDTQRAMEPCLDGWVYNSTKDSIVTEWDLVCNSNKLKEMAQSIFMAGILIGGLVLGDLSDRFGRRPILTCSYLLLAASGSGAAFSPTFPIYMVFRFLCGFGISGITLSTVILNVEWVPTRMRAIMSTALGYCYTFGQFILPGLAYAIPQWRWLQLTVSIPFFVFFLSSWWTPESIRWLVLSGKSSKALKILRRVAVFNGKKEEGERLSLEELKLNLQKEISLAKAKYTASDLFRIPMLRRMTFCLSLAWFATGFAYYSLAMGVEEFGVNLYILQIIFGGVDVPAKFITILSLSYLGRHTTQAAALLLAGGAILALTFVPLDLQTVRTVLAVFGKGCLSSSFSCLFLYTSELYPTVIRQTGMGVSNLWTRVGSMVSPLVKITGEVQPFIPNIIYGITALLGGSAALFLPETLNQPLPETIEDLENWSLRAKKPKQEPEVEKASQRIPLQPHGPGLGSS
Sequence of Cytochrome P450 2C19 (P33261 whole entry): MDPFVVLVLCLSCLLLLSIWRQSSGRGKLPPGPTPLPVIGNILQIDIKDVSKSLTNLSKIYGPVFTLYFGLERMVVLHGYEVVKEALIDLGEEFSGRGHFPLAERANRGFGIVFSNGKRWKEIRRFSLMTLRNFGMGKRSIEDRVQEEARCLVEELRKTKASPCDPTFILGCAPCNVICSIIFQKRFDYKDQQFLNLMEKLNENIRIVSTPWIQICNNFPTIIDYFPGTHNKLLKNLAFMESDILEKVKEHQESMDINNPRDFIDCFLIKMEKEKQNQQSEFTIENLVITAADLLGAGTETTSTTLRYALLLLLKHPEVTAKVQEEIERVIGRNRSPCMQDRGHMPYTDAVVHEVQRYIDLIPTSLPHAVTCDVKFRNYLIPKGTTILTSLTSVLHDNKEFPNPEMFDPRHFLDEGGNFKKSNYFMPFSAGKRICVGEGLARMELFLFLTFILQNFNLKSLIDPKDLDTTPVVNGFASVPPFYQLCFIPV
Sequence of Multidrug resistance-associated protein 1 (P33527 whole entry): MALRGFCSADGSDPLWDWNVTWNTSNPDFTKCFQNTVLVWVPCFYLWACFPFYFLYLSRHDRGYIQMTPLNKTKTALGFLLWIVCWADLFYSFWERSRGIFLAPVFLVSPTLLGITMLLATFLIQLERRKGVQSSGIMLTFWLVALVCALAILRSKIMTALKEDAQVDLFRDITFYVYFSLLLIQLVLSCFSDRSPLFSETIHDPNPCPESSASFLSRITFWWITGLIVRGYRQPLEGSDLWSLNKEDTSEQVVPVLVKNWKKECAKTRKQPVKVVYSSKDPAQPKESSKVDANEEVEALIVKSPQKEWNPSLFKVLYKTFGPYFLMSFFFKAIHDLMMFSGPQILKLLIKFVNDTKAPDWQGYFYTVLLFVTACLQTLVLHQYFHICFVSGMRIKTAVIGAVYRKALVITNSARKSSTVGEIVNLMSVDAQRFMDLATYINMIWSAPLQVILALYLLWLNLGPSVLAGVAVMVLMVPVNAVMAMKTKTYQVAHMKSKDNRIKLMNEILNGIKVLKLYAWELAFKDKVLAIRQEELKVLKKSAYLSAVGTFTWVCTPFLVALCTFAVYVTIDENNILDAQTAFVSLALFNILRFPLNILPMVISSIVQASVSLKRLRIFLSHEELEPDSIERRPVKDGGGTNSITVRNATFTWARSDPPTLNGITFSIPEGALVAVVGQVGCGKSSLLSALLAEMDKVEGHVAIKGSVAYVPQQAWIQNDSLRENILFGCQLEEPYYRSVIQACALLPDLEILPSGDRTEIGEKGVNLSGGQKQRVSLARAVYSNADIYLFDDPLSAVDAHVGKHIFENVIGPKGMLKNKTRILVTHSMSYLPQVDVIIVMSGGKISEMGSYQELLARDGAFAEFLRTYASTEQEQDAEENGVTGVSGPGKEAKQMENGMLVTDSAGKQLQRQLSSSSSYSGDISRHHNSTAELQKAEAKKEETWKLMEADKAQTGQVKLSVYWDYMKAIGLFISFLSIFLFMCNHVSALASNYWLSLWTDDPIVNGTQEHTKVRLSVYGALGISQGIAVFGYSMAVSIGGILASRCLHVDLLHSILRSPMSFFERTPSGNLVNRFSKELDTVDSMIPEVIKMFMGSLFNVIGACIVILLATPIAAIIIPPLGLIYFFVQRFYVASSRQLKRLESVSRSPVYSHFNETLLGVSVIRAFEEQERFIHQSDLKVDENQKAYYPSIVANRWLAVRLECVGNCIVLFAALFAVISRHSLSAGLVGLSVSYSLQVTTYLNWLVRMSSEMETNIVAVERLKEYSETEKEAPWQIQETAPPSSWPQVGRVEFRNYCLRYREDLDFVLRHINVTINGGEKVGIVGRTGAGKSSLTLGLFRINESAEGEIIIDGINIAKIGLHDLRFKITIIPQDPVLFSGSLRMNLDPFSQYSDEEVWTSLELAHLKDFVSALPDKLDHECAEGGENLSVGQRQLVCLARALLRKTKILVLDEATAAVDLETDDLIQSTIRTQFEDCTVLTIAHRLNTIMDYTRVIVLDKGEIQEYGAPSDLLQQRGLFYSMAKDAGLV
Sequence of Voltage-gated inwardly rectifying potassium channel KCNH2 (Q12809 whole entry): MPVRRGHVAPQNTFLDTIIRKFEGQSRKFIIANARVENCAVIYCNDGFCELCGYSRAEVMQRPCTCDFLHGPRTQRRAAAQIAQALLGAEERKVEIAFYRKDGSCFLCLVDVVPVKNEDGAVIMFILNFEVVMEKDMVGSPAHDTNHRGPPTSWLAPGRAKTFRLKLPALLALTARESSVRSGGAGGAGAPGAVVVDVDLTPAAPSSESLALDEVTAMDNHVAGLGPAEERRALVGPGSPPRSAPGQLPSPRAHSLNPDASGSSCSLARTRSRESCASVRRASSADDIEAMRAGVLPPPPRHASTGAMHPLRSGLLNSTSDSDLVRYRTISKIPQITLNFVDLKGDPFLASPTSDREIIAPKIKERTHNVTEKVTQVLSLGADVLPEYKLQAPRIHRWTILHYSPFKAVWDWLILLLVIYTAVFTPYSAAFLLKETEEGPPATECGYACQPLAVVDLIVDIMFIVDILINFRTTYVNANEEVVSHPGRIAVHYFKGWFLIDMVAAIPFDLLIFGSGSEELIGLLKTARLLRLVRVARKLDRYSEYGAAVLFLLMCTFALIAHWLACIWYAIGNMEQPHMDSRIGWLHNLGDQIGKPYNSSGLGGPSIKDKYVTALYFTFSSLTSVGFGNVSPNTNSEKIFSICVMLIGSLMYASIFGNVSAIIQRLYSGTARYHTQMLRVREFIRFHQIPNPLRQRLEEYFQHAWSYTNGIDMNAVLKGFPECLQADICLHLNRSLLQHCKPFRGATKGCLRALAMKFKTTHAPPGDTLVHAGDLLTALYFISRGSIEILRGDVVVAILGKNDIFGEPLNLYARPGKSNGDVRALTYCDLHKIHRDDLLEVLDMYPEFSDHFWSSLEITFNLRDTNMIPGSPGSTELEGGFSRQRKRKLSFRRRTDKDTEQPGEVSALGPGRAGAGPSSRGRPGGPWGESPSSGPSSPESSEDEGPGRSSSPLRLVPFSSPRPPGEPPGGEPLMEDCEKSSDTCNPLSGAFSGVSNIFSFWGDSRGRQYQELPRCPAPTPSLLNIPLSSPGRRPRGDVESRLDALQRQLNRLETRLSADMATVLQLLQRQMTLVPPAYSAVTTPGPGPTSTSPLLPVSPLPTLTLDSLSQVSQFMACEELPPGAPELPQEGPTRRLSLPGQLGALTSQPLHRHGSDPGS
Sequence of Cytochrome P450 1A2 (P05177 whole entry): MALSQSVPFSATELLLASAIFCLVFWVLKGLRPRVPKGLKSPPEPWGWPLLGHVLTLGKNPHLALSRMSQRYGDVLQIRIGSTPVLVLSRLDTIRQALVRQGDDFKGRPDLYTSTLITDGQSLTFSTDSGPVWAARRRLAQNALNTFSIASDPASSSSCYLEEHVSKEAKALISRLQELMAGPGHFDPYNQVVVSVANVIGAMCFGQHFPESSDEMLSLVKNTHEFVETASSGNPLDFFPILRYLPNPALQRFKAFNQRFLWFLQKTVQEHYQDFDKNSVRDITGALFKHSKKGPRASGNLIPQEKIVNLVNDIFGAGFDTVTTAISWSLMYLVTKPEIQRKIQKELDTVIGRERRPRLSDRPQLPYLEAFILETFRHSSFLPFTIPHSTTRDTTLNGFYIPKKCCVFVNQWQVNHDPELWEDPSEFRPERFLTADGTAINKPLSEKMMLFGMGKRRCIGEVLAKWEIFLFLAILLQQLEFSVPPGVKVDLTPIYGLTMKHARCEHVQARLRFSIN
Sequence of Hepatic sodium/bile acid cotransporter (Q14973 whole entry): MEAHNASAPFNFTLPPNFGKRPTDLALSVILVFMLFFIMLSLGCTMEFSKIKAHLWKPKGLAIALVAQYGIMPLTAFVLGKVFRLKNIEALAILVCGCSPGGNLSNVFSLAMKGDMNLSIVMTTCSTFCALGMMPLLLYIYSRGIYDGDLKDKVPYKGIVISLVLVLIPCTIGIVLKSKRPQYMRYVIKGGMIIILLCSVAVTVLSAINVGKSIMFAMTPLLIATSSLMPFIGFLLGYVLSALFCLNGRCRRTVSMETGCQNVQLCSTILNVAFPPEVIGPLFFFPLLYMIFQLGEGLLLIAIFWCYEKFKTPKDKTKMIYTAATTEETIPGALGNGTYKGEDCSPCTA

C[C@H]1CN(C2CCN(c3nc(N)n[nH]3)CC2)[C@@H](Cc2ccc(Cl)cc2)CO1 [5-(4-((2S,5S)-5-(4-CHLOROBENZYL)-2-METHYLMORPHOLINO)PIPERIDIN-1-YL)-1H-1,2,4-TRIAZOL-3-AMINE]
clearance [1]: 5.67 mL/min/kg
pIC50 [2]: 4.64
inhibition (INH) (Cytochrome P450 1A2): Not Active
inhibition (INH) (Cytochrome P450 2C19): Not Active
inhibition (INH) (Cytochrome P450 2C8): Not Active
inhibition (INH) [3]: Not Active
inhibition (INH) [4]: Not Active
inhibition (INH) [5]: Not Active
inhibition (INH) [6]: Not Active
AUC(0-t) at 24 h [7]: 20300 ng·h/mL
AUC(0-t) at 24 h [8]: 22200 ng·h/mL
AUC(0-t) at 24 h [9]: 94100 ng·h/mL
AUC/dose [10]: 3.38 kg·mg·h/L/mg
AUC/dose [11]: 9.41 kg·mg·h/L/mg
C0 [12]: 3970 ng/mL
Cmax [13]: 2470 ng/mL
Cmax [14]: 3420 ng/mL
Cmax [15]: 7640 ng/mL
Cmax/dose [16]: 0.34 kg.mg/L.mL
Tmax [17]: 2 h
half-life [18]: 4.49 h
half-life [19]: 21.9 h
clearance [20]: 5.67 mL/min/kg
clearance [21]: 1.67 mL/min/kg
Vd [22]: 1.82 L/kg
Vd [23]: 0.96 L/kg
Drug uptake [24]: Active
inhibition (Mus musculus [25]): Active
inhibition (Mus musculus [26]): Active
pIC50 (Chitotriosidase-1): 7.55
pKi (Chitotriosidase-1): 7.58
